Results taken from PubChem BioAssay (NCI).
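Five compound concentrations were applied to cells in 96-well plates for 48 hours; endpoints were derived by simple linear interpolation of the resulting dose-response curve. Definition used: TGI = concentration required for complete inhibition of growth.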

Assays:
Assay in all cases: inhibition of tumour cell growth, NCI panel, 48 h
NCI-H23 lung = system: NCI-H23 lung
HT29 colon = system: HT29 colon
SN12C renal = system: SN12C renal
LOX IMVI melanoma = system: LOX IMVI melanoma
SF-295 CNS = system: SF-295 CNS
SK-MEL-2 melanoma = system: SK-MEL-2 melanoma
IGROV1 ovarian = system: IGROV1 ovarian
OVCAR-8 ovarian = system: OVCAR-8 ovarian
KM12 colon = system: KM12 colon
A498 renal = system: A498 renal
RXF-631 renal = system: RXF-631 renal
SF-539 CNS = system: SF-539 CNS
SNB-19 CNS = system: SNB-19 CNS
MALME-3M melanoma = system: MALME-3M melanoma
HCT-116 colon = system: HCT-116 colon
HCT-15 colon = system: HCT-15 colon
SK-MEL-5 melanoma = system: SK-MEL-5 melanoma
SNB-78 CNS = system: SNB-78 CNS
OVCAR-5 ovarian = system: OVCAR-5 ovarian
TK-10 renal = system: TK-10 renal
786-0 renal = system: 786-0 renal
SR leukemia = system: SR leukemia
SNB-75 CNS = system: SNB-75 CNS
M14 melanoma = system: M14 melanoma
RPMI-8226 leukemia = system: RPMI-8226 leukemia
U251 CNS = system: U251 CNS
M19-MEL melanoma = system: M19-MEL melanoma
A549 NSCLC = system: A549 NSCLC
HL-60(TB) leukemia = system: HL-60(TB) leukemia
OVCAR-4 ovarian = system: OVCAR-4 ovarian
UACC-62 melanoma = system: UACC-62 melanoma
UO-31 renal = system: UO-31 renal
HOP-92 NSCLC = system: HOP-92 NSCLC
ACHN renal = system: ACHN renal
DLD-1 colon = system: DLD-1 colon
CCRF-CEM leukemia = system: CCRF-CEM leukemia
EKVX NSCLC = system: EKVX NSCLC
KM20L2 colon = system: KM20L2 colon
NCI-H460 lung = system: NCI-H460 lung
UACC-257 melanoma = system: UACC-257 melanoma
SW-620 colon = system: SW-620 colon
K-562 leukemia = system: K-562 leukemia
LXFL 529 NSCLC = system: LXFL 529 NSCLC
NCI-H522 lung = system: NCI-H522 lung
SK-OV-3 ovarian = system: SK-OV-3 ovarian
CAKI-1 renal = system: CAKI-1 renal
SF-268 CNS = system: SF-268 CNS
RXF 393 renal = system: RXF 393 renal
HOP-62 NSCLC = system: HOP-62 NSCLC
OVCAR-3 ovarian = system: OVCAR-3 ovarian
NCI-H226 lung = system: NCI-H226 lung
XF 498 CNS = system: XF 498 CNS
HCC-2998 colon = system: HCC-2998 colon
COLO 205 colon = system: COLO 205 colon
SK-MEL-28 melanoma = system: SK-MEL-28 melanoma
MOLT-4 leukemia = system: MOLT-4 leukemia
DMS 273 small cell lung = system: DMS 273 small cell lung
HOP-18 NSCLC = system: HOP-18 NSCLC
DMS 114 small cell lung = system: DMS 114 small cell lung

Measured: TGI

CC(=O)C(CN(Cc1ccccc1)Cc1ccccc1)C(c1ccccc1)c1c(O)c2ccccc2oc1=O (stereo not given)
not listed: HCC-2998 colon | COLO 205 colon | SK-MEL-28 melanoma | MOLT-4 leukemia | DMS 273 small cell lung | HOP-18 NSCLC | DMS 114 small cell lung
> 100 µM: all other assays above

C1CSC(=[N+]2CC[N+](=C3SCCS3)CC2)S1
not listed: NCI-H226 lung | XF 498 CNS
> 100 µM: all other assays above

COC(=O)NC12CC3CC(CC(F)(C3)C1)C2
not listed: SN12C renal | SF-295 CNS | HCT-15 colon | SK-MEL-5 melanoma | SR leukemia | OVCAR-4 ovarian | LXFL 529 NSCLC | CAKI-1 renal | SF-268 CNS | NCI-H226 lung | HOP-18 NSCLC | DMS 114 small cell lung
> 100 µM: all other assays above

O=C(O)CNS(=O)(=O)c1ccc(NC(=O)CI)cc1
73.6 µM: SK-MEL-2 melanoma
37.6 µM: LOX IMVI melanoma
61.1 µM: OVCAR-5 ovarian
29.5 µM: XF 498 CNS
38.8 µM: DMS 273 small cell lung
39.5 µM: UO-31 renal
41.4 µM: OVCAR-4 ovarian
72.8 µM: SK-OV-3 ovarian
62 µM: OVCAR-3 ovarian
28.6 µM: 786-0 renal
31.1 µM: RXF 393 renal
81.6 µM: EKVX NSCLC
68.5 µM: SF-295 CNS | KM12 colon
30 µM: SF-539 CNS
44.3 µM: M14 melanoma | SF-268 CNS
39.8 µM: NCI-H23 lung
34.5 µM: MOLT-4 leukemia
63 µM: SK-MEL-5 melanoma
96.8 µM: COLO 205 colon
48.6 µM: OVCAR-8 ovarian
32.2 µM: SNB-75 CNS
4.4 µM: NCI-H522 lung
5.85 µM: CCRF-CEM leukemia
54.5 µM: KM20L2 colon
20.2 µM: LXFL 529 NSCLC
54.4 µM: HT29 colon
37.5 µM: HL-60(TB) leukemia
38.6 µM: RPMI-8226 leukemia
36.4 µM: HOP-92 NSCLC
41.5 µM: HCT-15 colon
35 µM: U251 CNS
60.7 µM: DLD-1 colon
32.5 µM: RXF-631 renal
62.1 µM: K-562 leukemia
64 µM: NCI-H460 lung
39.6 µM: MALME-3M melanoma | SW-620 colon
72.4 µM: SK-MEL-28 melanoma
66.8 µM: UACC-62 melanoma
not listed: HCT-116 colon | SNB-78 CNS | SR leukemia | HOP-62 NSCLC | DMS 114 small cell lung
> 100 µM: all other assays above
